In patent publication US5684003A, “5-HT4 receptor agonists” (Nisshin Flour Milling Co., Ltd., priority 1994, dated 1997):
Counter-ions that a name gives are not always drawn. Like-named read-outs stand apart in the source and are kept apart here.

Assays:
5-HT4 receptors = molecular target: T1, 5-HT4 receptors (Rattus norvegicus, UniProt Q62758); experiment: Relaxation of carbachol-contracted rat oesophageal tunica muscularis mucosae; assay type: cell-based
T1 construct: from tissue; host or cells: rat oesophageal tunica muscularis mucosae
T1 sequence (Q62758 whole entry): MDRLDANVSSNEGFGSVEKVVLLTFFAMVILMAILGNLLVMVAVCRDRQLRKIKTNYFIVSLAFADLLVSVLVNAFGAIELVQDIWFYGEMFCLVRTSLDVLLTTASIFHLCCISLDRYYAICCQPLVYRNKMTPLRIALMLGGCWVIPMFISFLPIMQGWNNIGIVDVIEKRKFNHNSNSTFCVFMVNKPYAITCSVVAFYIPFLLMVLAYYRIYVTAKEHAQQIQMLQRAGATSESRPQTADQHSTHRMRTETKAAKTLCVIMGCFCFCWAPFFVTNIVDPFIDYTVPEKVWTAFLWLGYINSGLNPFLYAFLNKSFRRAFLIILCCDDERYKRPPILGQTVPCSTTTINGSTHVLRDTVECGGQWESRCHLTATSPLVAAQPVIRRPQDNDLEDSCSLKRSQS
Description: The agonistic activity of oxazabicyclo derivatives and Mosapride on 5-HT4 receptors was determined by the procedure mentioned in Naunyn-Schmiedeberg's Arch Pharmacol (1991) 343:439-446.
The rat oesophageal tunica muscularis mucosae were suspended in organ both containing Krebs-Henseleit solution aerated with a mixed gas (95% O2, 5% CO2) and contracted with carbachol (1×10^-6 M). After the contraction was stabilized, the cumulative administration of the compounds was performed to determine the relaxation of the rat oesophagus pre-contracted with carbachol. The concentration (ED50) to cause 50% relaxation of the carbachol-induced contraction was measured. The result is expressed in terms of -log ED50 and shown in the following table in which higher numerical value indicates higher activity.

5-HT3 receptor = molecular target: T2, 5-HT3 receptor (Rattus norvegicus, UniProt P35563); experiment: 5-HT3 receptor antagonist activity: inhibition of 2-Me-5-HT-induced reduction in heart rate in anesthetized rats; assay type: in vivo; details: iv (jugular vein) 5 minutes before 2-Me-5-HT 0.1 mg/kg, read-out: IC50 (the source's name)
T2 construct: from tissue; host or cells: whole anesthetized rat (in vivo); endogenous receptor
T2 sequence (P35563 24-483): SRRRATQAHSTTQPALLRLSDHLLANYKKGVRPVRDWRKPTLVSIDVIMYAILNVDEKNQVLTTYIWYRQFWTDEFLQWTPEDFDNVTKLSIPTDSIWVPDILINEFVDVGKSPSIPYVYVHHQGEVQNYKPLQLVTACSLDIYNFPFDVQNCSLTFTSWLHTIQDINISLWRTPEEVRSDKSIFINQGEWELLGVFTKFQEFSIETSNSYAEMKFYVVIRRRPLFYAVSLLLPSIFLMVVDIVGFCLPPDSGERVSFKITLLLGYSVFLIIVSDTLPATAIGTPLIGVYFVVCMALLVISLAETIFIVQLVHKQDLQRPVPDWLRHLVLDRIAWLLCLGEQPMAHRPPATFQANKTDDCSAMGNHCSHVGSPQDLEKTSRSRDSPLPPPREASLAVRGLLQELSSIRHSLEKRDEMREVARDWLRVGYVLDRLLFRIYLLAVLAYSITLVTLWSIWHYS
Description: For the purpose of studying a receptor selectivity of the present compounds, the 5-HT3 receptor antagonist activity was tested in the following manner. Rats were anesthetized with urethane and heart rate was recorded through femoral artery. The 5-HT3 selective agonist, 2-methyl-5-hydroxytryptamine (2-Me-5-HT) was administered at 0.1 mg/kg through carotid arteries and transient reduction in heart rate was recorded. The test. compounds were administered through jugular vein at 5 minutes before the administration of 2-Me-5-HT, inhibitory rate of reduction in heart rate by the administration of 2-Me-5-HT was calculated and IC50 value was calculated from the inhibitory rate.

5-HT4 receptor = 5-HT4 receptor (Cavia porcellus, UniProt O70528); experiment: Increase in contraction height of electrically stimulated longitudinal muscle of isolated guinea pig ileum (LMMP); assay type: cell-based; set-up: key: +: indicates the increase in the contraction height; -: indicates no effect
Chain of 5-HT4 receptor (O70528 whole entry): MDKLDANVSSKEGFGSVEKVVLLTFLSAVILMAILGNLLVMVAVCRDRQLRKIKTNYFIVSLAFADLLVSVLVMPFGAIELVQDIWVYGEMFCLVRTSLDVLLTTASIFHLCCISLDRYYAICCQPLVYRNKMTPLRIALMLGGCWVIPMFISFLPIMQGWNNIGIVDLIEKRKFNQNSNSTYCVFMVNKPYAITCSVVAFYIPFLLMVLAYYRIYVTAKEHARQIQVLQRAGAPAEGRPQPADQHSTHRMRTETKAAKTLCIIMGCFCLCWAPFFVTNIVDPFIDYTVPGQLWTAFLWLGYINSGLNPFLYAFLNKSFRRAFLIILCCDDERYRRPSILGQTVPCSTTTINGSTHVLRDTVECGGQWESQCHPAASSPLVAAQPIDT
Description: Ileum was excised from guinea pigs to prepare longitudinal muscle samples with approximately 2 cm length. The sample was suspended in Krebs-Henseleit liquid bath supplied with a mixed gas (95% O2, 5% CO2) and subjected to electrical stimulation (1 msec, 0.1 Hz) to record contraction force isometrically. The test compounds were. dissolved in distilled water or DMSO and tested at a concentration of 10^-7 M (but 10^-6 M for Compound 11). The results are shown by the presence or absence of the increase in the contraction height by electrical stimulation before administration of the compound, wherein the symbol "+" indicates the increase in the contraction height, while "-" indicates no effect.
Whether or not the action of the above compounds is that via activation of 5-HT4 receptors was investigated using as 5-HT4 receptor antagonist, SDZ 205-557 (2-methoxy-4-amino-5-chlorobenzoic acid 2-(diethylamino)ethyl ester) described in Naunyn-Schmiedeberg's Arch Pharmacol (1992) 345:387-393. Thus, the investigation as to whether SDZ 205-557 can antagonize the increase in the contraction height of the above compounds using the longitudinal muscle preparation of the isolated guinea pig ileum can reveal that such increase in the contraction height is the action via activation of 5-HT4 receptors.

Compound | EC50 (5-HT4 receptors) | further results
CCCCN1[C@@H]2COC[C@H]1C[C@@H](NC(=O)c1nn(C(CC)CC)c3ccccc13)C2 [Example 10, N-[endo-9-(n-Butyl)-3-oxa-9-azabicyclo[3.3.1.]non-7-yl]-1-(3-pentyl)indazole-3-carboxamide] | 0.851 µM | 
CCCCN1[C@@H]2COC[C@H]1C[C@@H](NC(=O)c1nn(C3CCCC3)c3ccccc13)C2 [Example 16, N-[endo-9-(n-Butyl)-3-oxa-9-azabicyclo[3.3.1]non-7-yl]-1-cyclopentyl-indazole-3-carboxamide] | 7.76 µM | 
CCCN1[C@@H]2COC[C@H]1C[C@@H](NC(=O)c1nn(C(C)C)c3ccccc13)C2 [Example 2, N-[endo-9-(n-Propyl)-3-oxa-9-azabicyclo[3.3.1]non-7-yl]-1-isopropyl-indazole-3-carboxamide] | 2.88 µM | ED50 (5-HT3 receptor): 0.0089 mg/kg; LMMP: presence or absence of the increase in the contraction height by electrical stimulation (5-HT4 receptor; test concentration 10^-7 M): +
CCCCN1[C@@H]2COC[C@H]1C[C@@H](NC(=O)c1nn([C@@H](C)CC)c3ccccc13)C2 [Example 18, (S)-(+)-N-[endo-9-(n-Butyl)-3-oxa-9-azabicyclo[3.3.1]non-7-yl]-1-(sec-butyl)indazole-3-carboxamide] | 0.437 µM | ED50 (5-HT3 receptor): 0.0183 mg/kg
CCCN1[C@@H]2COC[C@H]1C[C@@H](NC(=O)c1nn(C(CC)CC)c3ccccc13)C2 [Example 3, N-[endo-9-(n-Propyl)-3-oxa-9-azabicyclo[3.3.1]non-7-yl]-1-(3-pentyl)-indazole-3-carboxamide] | 1.66 µM | 
CC(C)n1nc(C(=O)N[C@H]2C[C@H]3COC[C@@H](C2)N3C)c2ccccc21 [Comparative Example 2, N-[endo-9-Methyl-3-oxa-9-azabicyclo[3.3.1]non-7-yl]-1-isopropylindazole-3-carboxamide, reference compound] | 1.51 µM | ED50 (5-HT3 receptor): 0.00032 mg/kg; LMMP: presence or absence of the increase in the contraction height by electrical stimulation (5-HT4 receptor; test concentration 10^-7 M): +
CCCCN1[C@@H]2COC[C@H]1C[C@@H](NC(=O)c1nn(CC=C(C)C)c3ccccc13)C2 [Example 12, N-[endo-9-(n-Butyl)-3-oxa-9-azabicyclo[3.3.1]non-7-yl]-1-(3-methyl-2-butenyl)indazole-3-carboxamide] | 6.76 µM | 
CCCCN1[C@@H]2COC[C@H]1C[C@@H](NC(=O)c1nn(C(C)CCC)c3ccccc13)C2 (relative stereo) [Example 9, N-[endo-9-(n-Butyl)-3-oxa-9-azabicyclo[3.3.1]non-7-yl]-1-(2-pentyl)-indazole-3-carboxamide] | 0.776 µM | 
CC(C)n1nc(C(=O)N[C@H]2C[C@H]3COC[C@@H](C2)N3)c2ccccc21 [Example 28, N-[endo-3-Oxa-9-azabicyclo[3.3.1]non-7-yl]-1-isopropylindazole-3-carboxamide (hydrochloride)] | 0.468 µM | 
CCCCCN1[C@@H]2COC[C@H]1C[C@@H](NC(=O)c1nn(C(C)C)c3ccccc13)C2 [Example 14, N-[endo-9-(n-Pentyl)-3-oxa-9-azabicyclo[^3.3.1]non-7-yl]-1-isopropylindazole-3-carboxamide] | 1.48 µM | ED50 (5-HT3 receptor): 0.0281 mg/kg; LMMP: presence or absence of the increase in the contraction height by electrical stimulation (5-HT4 receptor; test concentration 10^-7 M): +
C=CCn1nc(C(=O)N[C@H]2C[C@H]3COC[C@@H](C2)N3CCCC)c2ccccc21 [Example 11, N-[endo-9-(n-Butyl)-3-oxa-9-azabicyclo[3.3.1]non-7-yl]-1-allyl-indazole-3-carboxamide] | 3.55 µM | LMMP: presence or absence of the increase in the contraction height by electrical stimulation (5-HT4 receptor; test concentration 10^-6 M (Compound 11)): +
CN1[C@@H]2COC[C@H]1C[C@@H](NC(=O)c1nn(C)c3ccccc13)C2 [Comparative Example 1, N-[endo-9-Methyl-3-oxa-9-azabicyclo[3.3.1]non-7-yl]-1-methylindazole-3-carboxamide, reference compound] |  | LMMP: presence or absence of the increase in the contraction height by electrical stimulation (5-HT4 receptor; test concentration 10^-7 M): -; EC50 (5-HT4 receptors; ED50 = concentration to cause 50% relaxation of contraction by carbachol (1×10^-6 M), cumulative administration, read-out: Activity (-log ED50) (converted)): 115 µM
CCCCN1[C@@H]2COC[C@H]1C[C@@H](NC(=O)c1nn(CC3CC3)c3ccccc13)C2 [Example 13, N-[endo-9-(n-Butyl)-3-oxa-9-azabicyclo[3.3.1]non-7-yl]-1-(cyclopropylmethyl)indazole-3-carboxamide] | 2.09 µM | LMMP: presence or absence of the increase in the contraction height by electrical stimulation (5-HT4 receptor; test concentration 10^-7 M): +
CCCCN1[C@@H]2COC[C@H]1C[C@@H](NC(=O)c1nn(CCCC)c3ccccc13)C2 [Example 6, N-[endo-9-(n-Butyl)-3-oxa-9-azabicyclo[3.3.1]non-7-yl]-1-(n-butyl)-indazole-3-carboxamide] | 4.68 µM | 
CCCCCN1[C@@H]2COC[C@H]1C[C@@H](NC(=O)c1nn(C(CC)CC)c3ccccc13)C2 [Example 15, N-[endo-9-(n-Pentyl)-3-oxa-9-azabicyclo[3.3.1]non-7-yl]-1-(3-pentyl)-indazole-3-carboxamide] | 0.813 µM | 
CCCCN1[C@@H]2COC[C@H]1C[C@@H](NC(=O)c1nn(C(C)C)c3ccc(O)cc13)C2 [Example 26, N-[endo-9-(n-Butyl)-3-oxa-9-azabicyclo[3.3.1]non-7-yl]-5-hydroxy-1-isopropylindazole-3-carboxamide (hydrochloride)] | 10.5 µM | 
CC#CC(C)n1nc(C(=O)N[C@H]2C[C@H]3COC[C@@H](C2)N3CCCC)c2ccccc21 (relative stereo) [Example 17, N-[endo-9-(n-Butyl)-3-oxa-9-azabicyclo[3.3.1]non-7-yl]-1-(1-methyl-2-butynyl)indazole-3-carboxamide] | 2.24 µM | 
CCCCN1[C@@H]2COC[C@H]1C[C@@H](NC(=O)c1nn([C@H](C)CC)c3ccccc13)C2 [Example 19, (R)-(-)-N-[endo-9-(n-Butyl)-3-oxa-9-azabicyclo[3.3.1]non-7-yl]-1-(sec-butyl)indazole-3-carboxamide] | 1.05 µM | 
CCCCN1[C@@H]2COC[C@H]1C[C@@H](NC(=O)c1nn(CC)c3ccccc13)C2 [Example 4, N-[endo-9-(n-Butyl)-3-oxa-9-azabicyclo[3.3.1]non-7-yl]-1-ethylindazole-3-carboxamide] | 10.2 µM | 
CCCCN1[C@@H]2COC[C@H]1C[C@@H](NC(=O)c1nn(CC(C)C)c3ccccc13)C2 [Example 7, N-[endo-9-(n-Butyl)-3-oxa-9-azabicyclo[3.3.1]non-7-yl]-1-isobutyl-indazole-3-carboxamide] | 5.25 µM | 
CCCCN1[C@@H]2COC[C@H]1C[C@@H](NC(=O)c1nn(CCC)c3ccccc13)C2 [Example 1, N-[endo-9-(n-Butyl)-3-oxa-9-azabicyclo[3.3.1]non-7-yl]-1-(n-propyl)indazole-3-carboxamide] | 3.8 µM | 
CCCCN1[C@@H]2COC[C@H]1C[C@@H](NC(=O)c1nn(C(C)CC)c3ccccc13)C2 (relative stereo) [Example 8] | 0.631 µM | ED50 (5-HT3 receptor): 0.0297 mg/kg; LMMP: presence or absence of the increase in the contraction height by electrical stimulation (5-HT4 receptor; test concentration 10^-7 M): +
CCCCN1[C@@H]2COC[C@H]1C[C@@H](NC(=O)c1nn(C(C)C)c3c(O)cccc13)C2 [Example 27, N-[endo-9-(n-Butyl)-3-oxa-9-azabicyclo[3.3.1]non-7-yl]-7-hydroxy-1-isopropylindazole-3-carboxamide (hydrochloride)] | 15.8 µM | 
